Data from patent US20250145633A1, “SUBSTITUTED FURANOPYRIMIDINE COMPOUNDS AS PDE1 INHIBITORS” (Dart NeuroScience, LLC, priority 2017, published 2025).

Molecular target: human PDE1B enzyme (Homo sapiens (Human), UniProt Q01064)
Assay: IMAP TR-FRET PDE1B enzymatic assay
Assay type: biochemical
Settings: negative log of half-maximal molar inhibitory concentration, 200 nM FAM-cAMP, values given as bins; for IC50: read-out: PDE1b (pIC50) (converted)
Method in brief: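 Full-length GST-tagged human PDE1B (250 pg/well) in IMAP BSA buffer with 10 U/ml calmodulin and 2.5 mM CaCl2; compound pre-incubated 5 min at room temperature, then 200 nM (final) FAM-cAMP for 30 min. IMAP binding reagent/Tb added, 1 h; TR-FRET 520/490 ratio read. IC50 from sigmoidal dose-response fit.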

SMILES	IC50 [nM]	PDE1b (pIC50)
Cc1oc2ncnc(NC3(C)CC3)c2c1C(=O)NC1CCN(c2ncccn2)CC1 [Example 665, 6-Methyl-4-[(1-methylcyclopropyl)amino]-N-[1-(pyrimidin-2-yl)piperidin-4-yl]furo[2,3-d]pyrimidine-5-carboxamide]	10 to 100	
COc1cc(CNC(=O)c2c(C)oc3ncnc(NC4(C)CC4)c23)ncn1 [Example 666, N-[(6-Methoxypyrimidin-4-yl)methyl]-6-methyl-4-[(1-methylcyclopropyl)amino]furo[2,3-d]pyrimidine-5-carboxamide]		>8
COc1cc(CNC(=O)c2c(C)oc3ncnc(NC4(C)CC4)c23)nc(C)n1 [Example 667, N-[(6-Methoxy-2-methylpyrimidin-4-yl)methyl]-6-methyl-4-[(1-methylcyclopropyl)amino]furo[2,3-d]pyrimidine-5-carboxamide]		>8
Cc1oc2ncnc(NC3(C)CC3)c2c1C(=O)N1CCc2cnccc2C1 [Example 668, 6-Methyl-N-(1-methylcyclopropyl)-5-(1,2,3,4-tetrahydro-2,6-naphthyridine-2-carbonyl)furo[2,3-d]pyrimidin-4-amine]	10 to 100	
Cc1oc2ncnc(NC3(C)CC3)c2c1C(=O)NC1CCN(c2ccccn2)C1 (stereo not shown) [Example 669, 6-Methyl-4-[(1-methylcyclopropyl)amino]-N-[1-(pyridin-2-yl)pyrrolidin-3-yl]furo[2,3-d]pyrimidine-5-carboxamide]	10 to 100	
Cc1nccc(N2CCC(NC(=O)c3c(C)oc4ncnc(NC5(C)CC5)c34)CC2)n1 [Example 670, 6-Methyl-4-[(1-methylcyclopropyl)amino]-N-[1-(2-methylpyrimidin-4-yl)piperidin-4-yl]furo[2,3-d]pyrimidine-5-carboxamide]	100 to 1000	
Cc1cc(N2CCC(NC(=O)c3c(C)oc4ncnc(NC5(C)CC5)c34)CC2)ncn1 [Example 671, 6-Methyl-4-[(1-methylcyclopropyl)amino]-N-[1-(6-methylpyrimidin-4-yl)piperidin-4-yl]furo[2,3-d]pyrimidine-5-carboxamide]	100 to 1000	
Cc1cc(N2CCC(NC(=O)c3c(C)oc4ncnc(NC5(C)CC5)c34)CC2)nc(C)n1 [Example 672, N-[1-(2,6-Dimethylpyrimidin-4-yl)piperidin-4-yl]-6-methyl-4-[(1-methylcyclopropyl)amino]furo[2,3-d]pyrimidine-5-carboxamide]	100 to 1000	
Cc1ncc(CNC(=O)c2c(C)oc3ncnc(NC4(C)CC4)c23)c(=O)[nH]1 [Example 673, 6-Methyl-N-[(2-methyl-6-oxo-1,6-dihydropyrimidin-5-yl)methyl]-4-[(1-methylcyclopropyl)amino]furo[2,3-d]pyrimidine-5-carboxamide]	10 to 100	
Cc1oc2ncnc(NC3(C)CC3)c2c1C(=O)NCc1ccnc(-n2ccnc2)c1 [Example 674, N-{[2-(1H-Imidazol-1-yl)pyridin-4-yl]methyl}-6-methyl-4-[(1-methylcyclopropyl)amino]furo[2,3-d]pyrimidine-5-carboxamide]	10 to 100	
Cc1oc2ncnc(NC3(C)CC3)c2c1C(=O)NCc1ccnc(N2CCOCC2)c1 [Example 675, 6-Methyl-4-[(1-methylcyclopropyl)amino]-N-{[2-(morpholin-4-yl)pyridin-4-yl]methyl}furo[2,3-d]pyrimidine-5-carboxamide]	10 to 100	
COc1nc(C)ncc1CNC(=O)c1c(C)oc2ncnc(NC3(C)CC3)c12 [Example 676, N-[(4-Methoxy-2-methylpyrimidin-5-yl)methyl]-6-methyl-4-[(1-methylcyclopropyl)amino]furo[2,3-d]pyrimidine-5-carboxamide]	10 to 100	
Cc1oc2ncnc(NC3(C)CC3)c2c1C(=O)NCc1ccnc(Cl)n1 [Example 677, N-[(2-Chloropyrimidin-4-yl)methyl]-6-methyl-4-[(1-methylcyclopropyl)amino]furo[2,3-d]pyrimidine-5-carboxamide]	10 to 100	
